Reference: US8952147B2, “Conjugates, preparation thereof, and therapeutic use thereof” (Sanofi, priority 2009, dated 2015)

Experiments:
Format in all cases: cell-based
HCT116 cells = assay: Inhibition of proliferation of HCT116 cells by the cytotoxic agents (14C-thymidine incorporation); conditions: Homo sapiens, HCT-116, 3 days culture, 14C-thymidine incorporation at 96 hours
Description: (§1) Evaluation of the inhibition of proliferation of MDA-MB-231, MDA-A1 and HCT116 cell lines by the cytotoxic agents, study performed on the compounds of formula (II) of the type SZa with Za═SMe or of the type —C(═O)—ZbRb with ZbRb=OMe or OCH2—CH═CH2 The MDA-MB-231, MDA-A1 or HCT116 cells in their exponential growth phase are trypsinized and resuspended in their respective culture medium (DMEM/F12 Gibco #21331, 10% FCS Gibco #10500-056, […] Gibco #25030 for the MDA cells; DMEM Gibco #11960, 10% FCS Gibco #10500-056, 2 mM glutamine Gibco #25030 for the HCT116 cells). The cell suspension is seeded in Cytostar 96-well culture plates (GE Healthcare Europe, #RPNQ0163) in the whole culture medium containing serum at a density of 5000 cells/well (MDA-MB-231, MDA-A1, HCT116). After incubation for 4 hours, successive dilutions of the cryptophycin derivatives are added to the wells at concentrations decreasing from 10^−7 to 10^−12 M (in triplicate for each concentration). The cells are cultured for 3 days at 37° C. under an atmosphere containing 5% CO2 in the presence of the cytotoxic agents. On the 4th day, 10 μl of a ^14C-thymidine solution (0.1 μCi/well, Perkin Elmer #NEC56825000) are added to each well. The incorporation of ^14C-thymidine is measured 96 hours after the start of the experiment using a microbeta radioactivity counter (Perkin Elmer). The data are expressed in the form of a percentage of survival by determining the ratio between the reduced count obtained with the cells treated with cytotoxic agent and the count obtained with the cells of the control wells (treated with the culture medium alone).

MDA-MB-231 cells = assay: Inhibition of proliferation of MDA-MB-231 cells by the cytotoxic agents (14C-thymidine incorporation); conditions: Homo sapiens, 3 days culture, 14C-thymidine incorporation at 96 hours
Description: as §1

MDA-A1 cells = assay: Inhibition of proliferation of MDA-A1 cells by the cytotoxic agents (14C-thymidine incorporation); conditions: 3 days culture, 14C-thymidine incorporation at 96 hours
Description: as §1

Structure (SMILES) | IC50 (HCT116 cells) | IC50 (MDA-MB-231 cells) | IC50 (MDA-A1 cells)
COc1ccc(C[C@H]2NC(=O)/C=C/C[C@@H]([C@H](C)[C@H]3O[C@@H]3c3ccc(CNCC(C)(C)SSC)cc3)OC(=O)[C@H](CC(C)C)OC(=O)C(C)(C)CNC2=O)cc1Cl [Compound 13, (E)-(3S,10R,16S)-10-(3-Chloro-4-methoxybenzyl)-3-isobutyl-16-[(S)-1-((2R,3R)-3-{4-[(2-methyl-2-methyldisulfanylpropylamino)methyl]phenyl}oxiranyl)ethyl]-6,6-dimethyl-1,4-dioxa-8,11-diazacyclohexadec-13-ene-2,5,9,12-tetraone] | 0.336 nM | 0.529 nM | 9.76 nM
COc1ccc(C[C@H]2NC(=O)/C=C/C[C@@H]([C@H](C)[C@H]3O[C@@H]3c3ccc(CN4CCN(C(=O)CCC(C)(C)SSC)CC4)cc3)OC(=O)[C@H](CC(C)C)OC(=O)C(C)(C)CNC2=O)cc1Cl [Compound 7, (E)-(3S,10R,16S)-10-(3-Chloro-4-methoxybenzyl)-3-isobutyl-6,6-dimethyl-16-[(S)-1-((2R,3R)-3-{4-[4-(4-methyl-4-methyldisulfanylpentanoyl)piperazin-1-ylmethyl]phenyl}oxiranyl)-ethyl]-1,4-dioxa-8,11-diazacyclohexadec-13-ene-2,5,9,12-tetraone] | 0.315 nM | 0.303 nM | 7.95 nM
C=CCOC(=O)CCOCCOCCOCCOCCNCc1ccc([C@H]2O[C@@H]2[C@@H](C)[C@@H]2C/C=C/C(=O)N[C@H](Cc3ccc(OC)c(Cl)c3)C(=O)NCC(C)(C)C(=O)O[C@@H](CC(C)C)C(=O)O2)cc1 [Compound 44, Allyl (2-{2-[2-(2-{4-[(2R,3R)-3-((S)-1-{(E)-(3S,10R,16S)-10-[3-chloro-4-methoxy-benzyl]-3-isobutyl-6,6-dimethyl-2,5,9,12-tetraoxo-1,4-dioxa-8,11-diazacyclohexadec-13-en-16-yl}ethyl)oxiranyl]benzylamino}ethoxy)ethoxy]ethoxy}ethoxy)propanoate] | 0.135 nM | 0.156 nM | 15.6 nM
COc1ccc(C[C@H]2NC(=O)/C=C/C[C@@H]([C@H](C)[C@H]3O[C@@H]3c3ccc(CN)cc3)OC(=O)[C@H](CC(C)C)OC(=O)C(C)(C)CNC2=O)cc1Cl [Compound 77, (E)-(3S,10R,16S)-16-{(S)-1-[(2R,3R)-3-(4-Aminomethylphenyl)oxiranyl]ethyl}-10-(3-chloro-4-methoxybenzyl)-3-isobutyl-6,6-dimethyl-1,4-dioxa-8,11-diazacyclohexadec-13-ene-2,5,9,12-tetraone] | 0.105 nM | 0.17 nM | 15.1 nM
C=CCOC(=O)CN1CCN(Cc2ccc([C@H]3O[C@@H]3[C@@H](C)[C@@H]3C/C=C/C(=O)N[C@H](Cc4ccc(OC)c(Cl)c4)C(=O)NCC(C)(C)C(=O)O[C@@H](CC(C)C)C(=O)O3)cc2)CC1 [Compound 40, Allyl (4-{4-[(2R,3R)-3-((S)-1-{(E)-(3S,10R,16S)-10-[3-chloro-4-methoxybenzyl]-3-isobutyl-6,6-dimethyl-2,5,9,12-tetraoxo-1,4-dioxa-8,11-diazacyclohexadec-13-en-16-yl}ethyl)-oxiranyl]benzyl}piperazin-1-yl)acetate] | 0.12 nM | 0.293 nM | 1.58 nM
COc1ccc(C[C@H]2NC(=O)/C=C/C[C@@H]([C@H](C)[C@H]3O[C@@H]3c3ccc(CN(C)CCOCCOCCOCCN(C)CC(C)(C)SSC)cc3)OC(=O)[C@H](CC(C)C)OC(=O)C(C)(C)CNC2=O)cc1Cl [Compound 30] | 0.031 nM | 0.03 nM | 11.9 nM
COc1ccc(C[C@H]2NC(=O)/C=C/C[C@@H]([C@H](C)[C@H]3O[C@@H]3c3ccc(CO)cc3)OC(=O)[C@H](CC(C)C)OC(=O)C(C)(C)CNC2=O)cc1Cl [Compound 1, reference compound] | 0.032 nM | 0.041 nM | 1.07 nM
COc1ccc(C[C@H]2NC(=O)/C=C/C[C@@H]([C@H](C)[C@@H]3O[C@H]3c3ccc(CO)cc3)OC(=O)[C@H](CC(C)C)OC(=O)C(C)(C)CNC2=O)cc1Cl [Compound 57] | 1.13 nM | 1.19 nM | 29 nM
COc1ccc(C[C@H]2NC(=O)/C=C/C[C@@H]([C@H](C)[C@H]3O[C@@H]3c3ccc(CO)cc3)OC(=O)[C@H](CC(C)C)OC(=O)[C@H](C)CNC2=O)cc1Cl [Compound 8, reference compound] | 0.052 nM | 0.104 nM | 0.828 nM
COc1ccc(C[C@H]2NC(=O)/C=C/C[C@@H]([C@H](C)[C@H]3O[C@@H]3c3ccc(CN4CCN(CC(C)(C)SSC)CC4)cc3)OC(=O)[C@H](CC(C)C)OC(=O)C(C)(C)CNC2=O)cc1Cl [Compound 19, (E)-(3S,10R,16S)-10-(3-Chloro-4-methoxybenzyl)-3-isobutyl-6,6-dimethyl-16-[(S)-1-((2R,3R)-3-{4-[4-(2-methyl-2-methyldisulfanylpropyl)piperazin-1-ylmethyl]phenyl}oxiranyl)ethyl]-1,4-dioxa-8,11-diazacyclohexadec-13-ene-2,5,9,12-tetraone] | 0.152 nM | 0.149 nM | 2.71 nM
COC(=O)CCCc1cn(Cc2ccc([C@H]3O[C@@H]3[C@@H](C)[C@@H]3C/C=C/C(=O)N[C@H](Cc4ccc(OC)c(Cl)c4)C(=O)NCC(C)(C)C(=O)O[C@@H](CC(C)C)C(=O)O3)cc2)nn1 [Compound 62, Methyl (1-{4-[(2R,3R)-3-((S)-1-{(E)-(3S,10R,16S)-10-[3-chloro-4-methoxybenzyl]-3-isobutyl-6,6-dimethyl-2,5,9,12-tetraoxo-1,4-dioxa-8,11-diazacyclohexadec-13-en-16-yl}ethyl)-oxiranyl]benzyl}-1H-1,2,3-triazol-4-yl)butanoate] | 0.035 nM | 0.095 nM | 10.9 nM
